Experiments:
human MetAP2 enzyme [1] = target: T1, human MetAP2 enzyme (Homo sapiens, UniProt P50579); experiment: MetAP2 enzyme assay, enzyme complexed with manganese ions; details: MetAP2 Mn pIC50, MetAP2 enzyme complexed with manganese ions; Met-AMC substrate at Km
human MetAP2 enzyme [2] = target: T1, human MetAP2 enzyme; experiment: MetAP2 enzyme assay, enzyme complexed with cobalt ions; details: MetAP2 Co pIC50, MetAP2 enzyme complexed with cobalt ions; Met-AMC substrate at Km

T1 sequence (P50579 whole entry): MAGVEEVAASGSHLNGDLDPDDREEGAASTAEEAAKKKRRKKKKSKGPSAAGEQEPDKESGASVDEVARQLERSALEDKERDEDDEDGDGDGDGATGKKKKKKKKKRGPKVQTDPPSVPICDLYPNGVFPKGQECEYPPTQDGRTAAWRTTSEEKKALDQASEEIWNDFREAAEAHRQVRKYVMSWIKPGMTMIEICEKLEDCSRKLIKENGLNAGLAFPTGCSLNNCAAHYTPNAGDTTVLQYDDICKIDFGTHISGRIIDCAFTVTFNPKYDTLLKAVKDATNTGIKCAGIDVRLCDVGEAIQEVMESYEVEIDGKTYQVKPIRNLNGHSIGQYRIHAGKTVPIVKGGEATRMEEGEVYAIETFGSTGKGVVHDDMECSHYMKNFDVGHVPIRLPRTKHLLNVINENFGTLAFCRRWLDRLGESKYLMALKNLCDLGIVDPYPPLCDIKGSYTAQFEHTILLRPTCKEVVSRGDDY

Row | Structure (SMILES) | IC50 (human MetAP2 enzyme [1]) [nM] | IC50 (human MetAP2 enzyme [2]) [nM]
1 | Cc1nn(CC(=O)N2CCOCC2)c(C)c1-c1cc(C(F)(F)F)cc2[nH]ncc12 [Example 317, 2-(3,5-dimethyl-4-(6-(trifluoromethyl)-1H-indazol-4-yl)-1H-pyrazol-1-yl)-1-morpholinoethanone] | 20 | 63.1
2 | CNC(=O)c1ncncc1-c1cc(C(F)(F)F)cc2[nH]ncc12 [Example 254, N-methyl-5-(6-(trifluoromethyl)-1H-indazol-4-yl)pyrimidine-4-carboxamide] | 31.6 | 794
3 | Cc1nc(N)ccc1-c1cc(C(F)(F)F)cc2[nH]ncc12 [Example 255, 6-methyl-5-(6-(trifluoromethyl)-1H-indazol-4-yl)pyridin-2-amine] | 7.94 | 25.1
4 | O=C(NCCO)c1ccc(-c2cc(C(F)(F)F)cc3[nH]ncc23)cc1F [Example 109, 2-fluoro-N-(2-hydroxyethyl)-4-(6-(trifluoromethyl)-1H-indazol-4-yl)benzamide] | 3.16 | 50.1
5 | Cc1nc2[nH]c(O)nc2cc1-c1cc(C(F)(F)F)cc2[nH]ncc12 [Example 382, 5-methyl-6-(6-(trifluoromethyl)-1H-indazol-4-yl)-3H-imidazo[4,5-b]pyridin-2-ol] | 6.31 | 12.6
6 | FC(F)(F)c1cc(-c2ccc3scnc3c2)c2cn[nH]c2c1 [Example 107, 5-(6-(trifluoromethyl)-1H-indazol-4-yl)benzo[d]thiazole] | 5.01 | 31.6
7 | FC(F)(F)c1cc(-c2c[nH]c3ncncc23)c2cn[nH]c2c1 [Example 155, 5-(6-(trifluoromethyl)-1H-indazol-4-yl)-7H-pyrrolo[2,3-d]pyrimidine] | 15.8 | 63.1
8 | FC(F)(F)c1cc(-c2cccc3c2OCO3)c2cn[nH]c2c1 [Example 27, 4-(benzo[d][1,3]dioxol-4-yl)-6-(trifluoromethyl)-1H-indazole] | 15.8 | 126
9 | OCCNc1ncc(-c2cc(C(F)(F)F)cc3[nH]ncc23)cn1 [Example 209, 2-(5-(6-(trifluoromethyl)-1H-indazol-4-yl)pyrimidin-2-ylamino)ethanol] | 6.31 | 79.4
10 | Cc1c(-c2cc(C(F)(F)F)cc3[nH]ncc23)ccc(=O)n1Cc1ccccn1 [Example 407, 6-methyl-1-(pyridin-2-ylmethyl)-5-(6-(trifluoromethyl)-1H-indazol-4-yl)pyridin-2(1H)-one] | 12.6 | 79.4
11 | Cc1nn(-c2nnn[nH]2)c(C)c1-c1cc(C(F)(F)F)cc2[nH]ncc12 [Example 169, 4-(3,5-dimethyl-1-(1H-tetrazol-5-yl)-1H-pyrazol-4-yl)-6-(trifluoromethyl)-1H-indazole] | 20 | 251
12 | Cc1ccc(S(=O)(=O)N(C)C)cc1-c1cc(C(F)(F)F)cc2[nH]ncc12 [Example 127, N,N,4-trimethyl-3-(6-(trifluoromethyl)-1H-indazol-4-yl)benzenesulfonamide] | 12.6 | 15.8
13 | O=C(NCCO)c1ncc(-c2cc(C(F)(F)F)cc3[nH]ncc23)cn1 [Example 286, N-(2-hydroxyethyl)-5-(6-(trifluoromethyl)-1H-indazol-4-yl)pyrimidine-2-carboxamide] | 7.94 | 200
14 | CCn1cc(-c2cc(C(F)(F)F)cc3[nH]ncc23)c(C)n1 [Example 171, 4-(1-ethyl-3-methyl-1H-pyrazol-4-yl)-6-(trifluoromethyl)-1H-indazole] | 5.01 | 63.1
15 | CN1CCN(C(=O)c2c[nH]c(=O)c(-c3cc(C(F)(F)F)cc4[nH]ncc34)c2)CC1 [Example 297, 5-(4-methylpiperazine-1-carbonyl)-3-(6-(trifluoromethyl)-1H-indazol-4-yl)pyridin-2(1H)-one] | 6.31 | 158
16 | Cc1nc(CCS(C)(=O)=O)ccc1-c1cc(C(F)(F)F)cc2[nH]ncc12 [Example 409, 4-(2-methyl-6-(2-(methylsulfonyl)ethyl)pyridin-3-yl)-6-(trifluoromethyl)-1H-indazole] | 3.98 | 15.8
17 | NC(=O)c1cc(-c2cc(C(F)(F)F)cc3[nH]ncc23)cnc1N [Example 233, 2-amino-5-(6-(trifluoromethyl)-1H-indazol-4-yl)nicotinamide] | 7.94 | 100
18 | OCc1cncc(-c2cc(C(F)(F)F)cc3[nH]ncc23)c1 [Example 29, (5-(6-(trifluoromethyl)-1H-indazol-4-yl)pyridin-3-yl)methanol] | 6.31 | 79.4
19 | NC(=O)c1cc(-c2cc(C(F)(F)F)cc3[nH]ncc23)c[nH]c1=O [Example 231, 2-oxo-5-(6-(trifluoromethyl)-1H-indazol-4-yl)-1,2-dihydropyridine-3-carboxamide] | 6.31 | 158
20 | Cc1c(C(=O)NCCO)cc(-c2cc(C(F)(F)F)cc3[nH]ncc23)c(=O)n1C [Example 404, N-(2-hydroxyethyl)-1,2-dimethyl-6-oxo-5-(6-(trifluoromethyl)-1H-indazol-4-yl)-1,6-dihydropyridine-3-carboxamide] | 12.6 | 251
21 | Cc1nc2cc(-c3cc(C(F)(F)F)cc4[nH]ncc34)cnc2[nH]1 [Example 341, 2-methyl-6-(6-(trifluoromethyl)-1H-indazol-4-yl)-3H-imidazo[4,5-b]pyridine] | 7.94 | 15.8
22 | CN(C)c1ncc(-c2cc(C(F)(F)F)cc3[nH]ncc23)cn1 [Example 247, N,N-dimethyl-5-(6-(trifluoromethyl)-1H-indazol-4-yl)pyrimidin-2-amine] | 3.98 | 50.1
23 | C[C@@H](O)CNc1ncc(-c2cc(C(F)(F)F)cc3[nH]ncc23)cn1 [Example 207, (R)-1-(5-(6-(trifluoromethyl)-1H-indazol-4-yl)pyrimidin-2-ylamino)propan-2-ol] | 7.94 | 79.4
24 | FC(F)(F)c1cc(-c2ccc(OCCN3CCOCC3)cc2)c2cn[nH]c2c1 [Example 281, 4-(2-(4-(6-(trifluoromethyl)-1H-indazol-4-yl)phenoxy)ethyl)morpholine] | 7.94 | 63.1
25 | N#Cc1cc(F)ccc1-c1cc(C(F)(F)F)cc2[nH]ncc12 [Example 75, 5-fluoro-2-(6-(trifluoromethyl)-1H-indazol-4-yl)benzonitrile] | 7.94 | 158
26 | Cc1nn(CC(=O)N2CCOCC2)cc1-c1cc(C(F)(F)F)cc2[nH]ncc12 [Example 277, 2-(3-methyl-4-(6-(trifluoromethyl)-1H-indazol-4-yl)-1H-pyrazol-1-yl)-1-morpholinoethanone] | 5.01 | 63.1
27 | Cc1c(-c2cc(C(F)(F)F)cc3[nH]ncc23)ccc(=O)n1C [Example 402, 1,6-dimethyl-5-(6-(trifluoromethyl)-1H-indazol-4-yl)pyridin-2(1H)-one] | 3.16 | 39.8
28 | Cc1ncccc1-c1cc(C(F)(F)F)cc2[nH]ncc12 [Example 50, 4-(2-methylpyridin-3-yl)-6-(trifluoromethyl)-1H-indazole] | 5.01 | 31.6
29 | Cc1cc(S(=O)(=O)N(C)C)ccc1-c1cc(C(F)(F)F)cc2[nH]ncc12 [Example 125, N,N,3-trimethyl-4-(6-(trifluoromethyl)-1H-indazol-4-yl)benzenesulfonamide] | 31.6 | 158
